Assay [1] concerns the target T1, CCK2 receptor (Homo sapiens, UniProt P32239).
T1 construct: Membranes were prepared from the HEKZFP cells after induction; endogenous in cells
T1 sequence (P32239 1-447): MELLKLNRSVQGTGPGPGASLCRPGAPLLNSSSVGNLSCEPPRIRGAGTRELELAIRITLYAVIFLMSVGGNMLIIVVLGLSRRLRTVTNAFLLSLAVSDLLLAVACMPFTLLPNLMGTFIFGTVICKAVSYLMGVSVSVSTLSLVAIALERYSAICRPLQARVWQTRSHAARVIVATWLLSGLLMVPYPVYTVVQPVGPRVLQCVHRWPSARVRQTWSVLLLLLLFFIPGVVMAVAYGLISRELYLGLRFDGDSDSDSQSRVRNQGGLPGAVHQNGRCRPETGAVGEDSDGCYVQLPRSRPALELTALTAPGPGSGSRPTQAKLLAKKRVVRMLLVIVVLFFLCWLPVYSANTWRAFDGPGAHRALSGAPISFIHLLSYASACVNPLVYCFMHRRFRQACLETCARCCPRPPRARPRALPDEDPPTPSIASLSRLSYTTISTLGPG
In words: Binding Assay: competition with [125I]-BH-CCK-8S in HEKZFP cell membranes. The note with it: 60 min at 21±3° C., Cheng-Prusoff. How it is done: Zinc Finger Proteins (ZFP) specific for the CCK2R gene were identified by Sangamo Biosciences. The ZFP domain was fused with the herpes simplex virus VP16 activation domain, and the fusion protein was subsequently cloned into the pcDNA3 mammalian expression vector (Invitrogen, San Diego, Calif.). Tet-inducible cell lines expressing the coding region from the ZFP vector were created using the T-REx-293™ cell line (Invitrogen). After 2 weeks of selection in culture medium containing […] Zeocin (Invitrogen), sixty drug-resistant stable clones were isolated and analyzed for ZFP expression as well as CCK2R induction upon addition of doxycycline to the culture medium. The cell line with the most appropriate CCK2R ZFP construct was used in all further assays and was termed the HEKZFP cell line.
HEKZFP cells were grown in DMEM supplemented with L-glutamine (2 mM), penicillin (50 units/mL) and streptomycin (50 μg/mL) and 10% FBS (v/v). HEKZFP cells were treated with […] doxycycline (Sigma-Aldrich, MO; USA) for 2 days to de-repress the tet-regulated expression of the CCK2 receptor selective zinc finger proteins and were harvested using a rubber cell scraper.
Membranes were prepared from the HEKZFP cells after induction. Frozen cell pellets (−40° C.) were thawed in 14 mL of buffer A (10 mM HEPES, 130 mM NaCl, 4.7 mM KCl, 5 mM MgCl, 1 mM EGTA and 15.4 mg/100 mL bacitracin at pH 7.2), adapted from E. A. Harper et al. (Br. J. Pharmacol. (1996) 118(7):1717-1726). The thawed pellets were homogenized using a Polytron PT-10 (7×1 s). The homogenates were centrifuged for 5 min at 1500 rpm (600×g), and the resulting pellets were discarded. The supernatants were re-centrifuged in order to collect the receptor-membrane pellets (25 min 15,000 rpm; 39,000×g), which were re-suspended in buffer A.
All assays were conducted in 96-well plate (GF/B millipore filter plates) using buffer A. For the optimal cell number determination experiments, cells in concentrations ranging from 2.5×10^5 to 12.5×10^5 cells/well were incubated with 20 pM [^125I]-BH-CCK-8S (50 μL 60 pM) solution) in a total volume of 150 μL. Total binding of [^125I]-BH-CCK-8S was determined in the presence of 15 μL of buffer A. Non-specific binding of [^125I]-BH-CCK-8S was determined in the presence of 15 μL of 10 μM YF476, a CCK-2 receptor selective antagonist that is structurally unrelated to the radioligand [^125I]-BH-CCK-8S. The assay preparation was incubated for 1 h at 21±3° C., and then the assay was terminated by rapid filtration of the preparation under reduced pressure. The loaded filters were washed three times using undiluted PBS (100 μL), and then 100 μL of scintillation fluid was added to the filter plate. Bound radioactivity was determined using a Topcount (Packard BioScience, Meriden, Conn.) with a count time of 1 min. From these experiments a cell concentration of 1 pellet in 15 mL of buffer was chosen for use in other assays. To validate the radioligand concentration and incubation time for the assay, saturation and kinetic binding studies were also conducted (see M. F. Morton, The Pharmacological Characterization of Cholecystokinin Receptors in the Human Gastrointestinal Tract. PhD Thesis, University of London, 2000). […] The assay was then terminated according to the procedure outlined above.
The pKi values were determined using the equation of Y.-C. Cheng and W. H. Prusoff (Biochem. Pharmacol., 1973, 22(23):3099-3108):
To circumvent problems associated with computer-assisted data analysis of compounds with low affinity, the data obtained in the current study were weighted according to a method described by Morton. In brief, 100% and 0% specific binding were defined independently using total binding and binding obtained in the presence of a high concentration of the reference antagonist, 2-NAP.

The target in assay [2] is T2, CCK2 receptor (Cavia porcellus, UniProt H0VZC5).
T2 construct: strips of muscle were dissected and suspended in isolated tissue organ baths; from tissue; host or cells: guinea-pig gastric corpeal muscle strips
T2 sequence (H0VZC5 1-426): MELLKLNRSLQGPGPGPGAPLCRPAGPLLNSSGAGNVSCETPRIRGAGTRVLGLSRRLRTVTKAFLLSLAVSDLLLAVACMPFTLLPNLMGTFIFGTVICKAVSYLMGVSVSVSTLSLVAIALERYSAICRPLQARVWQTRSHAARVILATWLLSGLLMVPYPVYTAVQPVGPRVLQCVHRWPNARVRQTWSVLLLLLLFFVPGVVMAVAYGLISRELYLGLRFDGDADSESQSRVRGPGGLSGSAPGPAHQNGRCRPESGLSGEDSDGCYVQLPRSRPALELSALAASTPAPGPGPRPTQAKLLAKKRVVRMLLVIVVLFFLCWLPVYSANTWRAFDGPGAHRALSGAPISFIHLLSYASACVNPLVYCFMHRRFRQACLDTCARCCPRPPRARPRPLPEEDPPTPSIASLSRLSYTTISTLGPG
In words: Guinea-Pig Gastric Corpeal Muscle Assay (isolated muscle strip, pentagastrin-induced contraction). In kind it is cell-based. The note with it: CCK1 receptors blocked. The protocol: Guinea-Pig Gastric Corpeal Muscle Assay
CCK2 receptor-mediated muscle contraction was measured in an isolated muscle-strip assay of guinea-pig gastric corpeal muscle according to the methods described by Roberts et al. (S. P. Roberts, E. A. Harper, G. F. Watt, V. P. Gerskowitch, R. A. Hull, N. P. Shankley, and J. W. Black, Br. J. Pharmacol., 1996, 118(7):1779-1789). In brief, strips of muscle were dissected and suspended in isolated tissue organ baths for isotonic muscle contraction recording. The baths, containing Krebs-Henseleit solution, were maintained at 24° C. and gassed continuously with 95% O2 and 5% CO2. CCK1 receptors known to be present in this assay were blocked using a selective concentration of a suitable CCK1 receptor antagonist (e.g. 2-NAP). The effectiveness of the test compounds was assessed by measuring their effect on contractile concentration-response curves obtained using a well-characterized surrogate for the hormone gastrin (pentagastrin).

The term pKi denotes −log10 of the Ki, conventionally taken in molar units. A high value points to a small Ki.

For `O=C(c1ccc(Br)cc1NS(=O)(=O)c1cccc2nsnc12)N1CCCCC1` [Example 5, Benzo[1,2,5]thiadiazole-4-sulfonic acid [5-bromo-2-(piperidine-1-carbonyl)-phenyl]-amide], the pKi on CCK2 receptor [1] was determined as 7.6. The same compound yielded a pK8 value at CCK2 receptor [2] (antagonism of pentagastrin concentration-response curves, 24° C.) of 8.8. In addition, the “behaviour in the muscle contraction assay” value on CCK2 receptor [2] (pentagastrin concentration-response curves) is “competitive antagonist”.

For the origin of these results see patent US7550492B2, “Benzo[1,2,5]thiadiazole compounds” (Janssen Pharmaceutica N.V., priority 2003, dated 2009).
